Results published in patent publication US8877158B2, “Targeting agent to newly formed blood vessels” (FUJIFILM Corporation, priority 2009, dated 2014).

Assays:
HUVECs = test: HUVEC cell adhesiveness test on protein-coated plates (DNA assay, 1-cell area); type: cell-based, human
Text: HUVECs (normal human umbilical vein endothelial cells; Takara Bio Inc.) were used as vascular endothelial cells. It is known that many αVβ3 integrin molecules are permanently expressed on the surfaces of HUVECs. By testing cell adhesiveness of R-Gel to HUVECs, binding of R-Gel to vascular endothelial cells activated by newly formed blood vessels can be elucidated. Also, binding of R-Gel to αVβ3 integrin that has been reported to be highly expressed at newly formed blood vessel sites can be elucidated.
For culture of HUVECs, endothelial cell basic medium-2 (containing no serum) (EBM™-2) and endothelial cell medium kit-2 (2% FBS) (EGM™-2 BulletKit™) were used (Takara Bio Inc.). Upon subculture and removal of cells, an EDTA-containing 0.25% trypsin solution was used. HUVECs that had been allowed to proliferate to a sufficient amount in a T-75 flask were removed from the bottom surface of the flask, followed by centrifugation for removal of the supernatant. Then, the resultant was washed with the above endothelial cell basic medium-2 containing the endothelial cell medium kit 2. Centrifugation was performed again to remove the supernatant. […] The number of living cells was counted using cell counter. […]
DNA assay was performed for quantitative determination of the number of cells on the obtained plates. […]

αVβ3 integrin = biological target: T1, αVβ3 integrin (Homo sapiens, UniProt P05106+P06756); test: Inhibition of αVβ3-integrin-mediated HUVEC adhesion by anti-αV antibody; type: cell-based; settings: coating 0.2 μg/well; antibody-treated vs untreated HUVECs
T1 construct: many αVβ3 integrin molecules are permanently expressed on the surfaces of HUVECs; host or cells: HUVEC (normal human umbilical vein endothelial cells)
T1 sequence (P06756 31-889 limits assumed): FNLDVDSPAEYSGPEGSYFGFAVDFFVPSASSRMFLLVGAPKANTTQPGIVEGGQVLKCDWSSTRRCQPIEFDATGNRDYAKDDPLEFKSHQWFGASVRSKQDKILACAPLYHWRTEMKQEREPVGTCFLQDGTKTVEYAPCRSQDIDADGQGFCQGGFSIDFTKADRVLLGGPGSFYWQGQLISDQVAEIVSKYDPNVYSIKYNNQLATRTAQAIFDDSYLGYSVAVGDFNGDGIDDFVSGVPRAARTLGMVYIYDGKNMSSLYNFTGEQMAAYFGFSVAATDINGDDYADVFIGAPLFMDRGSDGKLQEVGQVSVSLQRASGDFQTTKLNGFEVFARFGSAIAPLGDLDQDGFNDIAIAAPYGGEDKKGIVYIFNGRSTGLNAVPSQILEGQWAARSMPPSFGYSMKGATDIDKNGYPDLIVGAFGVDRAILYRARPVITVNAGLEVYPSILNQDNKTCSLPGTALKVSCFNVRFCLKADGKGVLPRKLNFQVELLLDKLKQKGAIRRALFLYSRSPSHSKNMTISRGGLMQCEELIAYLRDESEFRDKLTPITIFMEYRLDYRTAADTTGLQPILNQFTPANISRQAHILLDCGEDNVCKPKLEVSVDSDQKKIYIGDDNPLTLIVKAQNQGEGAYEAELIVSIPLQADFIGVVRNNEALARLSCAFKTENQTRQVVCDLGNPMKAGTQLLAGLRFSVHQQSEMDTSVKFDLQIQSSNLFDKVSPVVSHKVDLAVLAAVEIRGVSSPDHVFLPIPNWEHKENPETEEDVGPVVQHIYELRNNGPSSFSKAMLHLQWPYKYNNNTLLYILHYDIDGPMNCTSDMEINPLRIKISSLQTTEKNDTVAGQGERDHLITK
T1 sequence (P06756 891-1048 partner limits assumed): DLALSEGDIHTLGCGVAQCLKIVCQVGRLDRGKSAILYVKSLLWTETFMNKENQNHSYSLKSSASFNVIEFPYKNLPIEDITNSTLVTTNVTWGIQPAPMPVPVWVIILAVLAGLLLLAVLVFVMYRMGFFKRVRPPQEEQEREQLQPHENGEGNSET
T1 sequence (P05106 27-788): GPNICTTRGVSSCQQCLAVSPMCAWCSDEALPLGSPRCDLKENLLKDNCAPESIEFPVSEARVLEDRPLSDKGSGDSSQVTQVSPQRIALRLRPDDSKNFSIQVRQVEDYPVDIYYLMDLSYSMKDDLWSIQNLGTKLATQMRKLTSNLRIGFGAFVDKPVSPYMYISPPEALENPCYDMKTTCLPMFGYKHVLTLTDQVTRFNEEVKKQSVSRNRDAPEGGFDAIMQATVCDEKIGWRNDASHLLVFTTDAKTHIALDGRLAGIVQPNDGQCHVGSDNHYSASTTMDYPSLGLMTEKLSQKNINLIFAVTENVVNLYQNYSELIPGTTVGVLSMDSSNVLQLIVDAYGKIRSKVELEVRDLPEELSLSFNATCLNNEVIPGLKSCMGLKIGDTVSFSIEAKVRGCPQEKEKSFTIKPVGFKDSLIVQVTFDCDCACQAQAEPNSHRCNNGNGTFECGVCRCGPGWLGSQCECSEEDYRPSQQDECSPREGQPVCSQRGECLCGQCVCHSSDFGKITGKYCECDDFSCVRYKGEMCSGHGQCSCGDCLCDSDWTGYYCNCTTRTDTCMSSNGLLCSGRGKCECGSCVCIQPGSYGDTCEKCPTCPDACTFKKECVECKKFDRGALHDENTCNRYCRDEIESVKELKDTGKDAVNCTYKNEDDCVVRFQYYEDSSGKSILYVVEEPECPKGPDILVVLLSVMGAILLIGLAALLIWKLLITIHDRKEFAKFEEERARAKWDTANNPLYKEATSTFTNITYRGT
Experimental: In order to identify binding between R-Gel and HUVECs as αVβ3-integrin-mediated binding, experimentation was conducted to determine whether or not R-Gel-to-cell adhesion would be inhibited by blocking αVβ3 integrin with an anti-αV antibody in the R-Gel-to-cell adhesiveness tests conducted in (7) above.
Specifically, cell adhesion experiments were conducted as described in (7) above. Experiments were conducted using the R-Gel-coated plate and the fibronectin-coated plate at a coating concentration of 0.2 μg/well. The prepared HUVECs were incubated with anti-human αV monoclonal antibodies (MAB1980: CHEMICON) at a sufficient concentration at 37° C. for 30 minutes, and they are described as “antibody-treated HUVECs”. On the other hand, the prepared HUVECs were incubated with the addition of the same amount of PBS at 37° C. for 30 minutes, and they are described as ““untreated HUVECs”. Cells were inoculated on plates with addition of a solution (100 μL/well) prepared in a manner such that it contained antibody-treated HUVECs or untreated HUVECs at a concentration of 1,000,000 cells/mL. The time for cell adhesion was determined to be 1 hour at 37° C. as in the case of (7) above. Quantitative determination of the number of cells was carried out by DNA assay as in the case of (7) above.

[1] = in vivo, 24 h; cited from earlier work
neovascular site = test: Inhibition of accumulation of R-Gel in neovascular site by previous administration of cyclo-RGDfK; type: in vivo, mouse; settings: for fluorescence intensity in the neovascular site: average±S.D.
Experimental: In order to evaluate whether accumulation of R-Gel in neovascular site is targeting caused by the same mechanism as that of circular RGD peptide cyclo-RGDfK, whether accumulation of R-Gel would be inhibited by previously administering a large amount of cyclo-RGDfK was examined. Unlabeled cyclo-RGDfK was dissolved in a concentration of 1 mg/ml in ultrapure water, and thereafter, 100 μL of the obtained solution was administered to a mouse via caudal vein administration. Thirty minutes later, 100 μL of Cy7-R-Gel was administered thereto via caudal vein administration. As a control, instead of cyclo-RGDfK, 100 μL of PBS (phosphate buffer) was administered to a mouse via caudal vein administration, and thirty minutes later, 100 μL of Cy7-R-Gel was administered thereto via caudal vein administration. After completion of the administration, fluorescence intensity in the neovascular site was measured over time. When the fluorescence intensity was measured 1 hour after the administration, the fluorescence intensity in the PBS administration group was 98063583±1200251 (average±S.D.), whereas the fluorescence intensity in the cyclo-RGDfK administration group was 81431011±1373625 (average±S.D.). […] Likewise, in the measurement 3 hours after the administration, the fluorescence intensity in the PBS administration group was 88124139±3438695 (average±S.D.), whereas the fluorescence intensity in the cyclo-RGDfK administration group was 60269975±1267782 (average±S.D.). In the measurement 24 hours after the administration, the fluorescence intensity in the PBS administration group was 22196881±2549892 (average±S.D.), whereas the fluorescence intensity in the cyclo-RGDfK administration group was 12763810±1927458 (average±S.D.).

[2] = system: tumor site and tumoral neovascular site; test: Imaging of tumor site and tumoral neovascular site of cancer-bearing animal (Colon-26 homograft); type: in vivo, BALB/c mouse; settings: cyclo-RGDfK administered 30 minutes before Cy7-R-Gel
Experimental: As a tumor-bearing animal model, a cancer-bearing animal was produced. As an animal, BALB/c mouse (female, 6-week-old; Japan SLC, Inc.) was used. Tumor was produced using a cancer cell homograft model. As cancer cells, Colon-26 (which were cells derived from BALB/c mouse colon cancer) was used, and these cells were cultured in large scale in an RPMI1640 medium containing 10% fetal bovine serum. For the culture, a T-225 flask was used. Using EDTA-containing 0.25% trypsin, the growing cancer cells were removed from the bottom of the flask, and a culture supernatant was then removed by centrifugation. Thereafter, the solution was replaced with PBS (phosphate buffer), and the cell concentration was then counted using a cell counter. […]
200 μL of the Cy7-R-Gel or Cy7-animal gelatin produced in (6) above was administered to the cancer-bearing animal produced in (9) above via caudal vein administration, and a fluorescence imaging experiment was then carried out from the outside of the body of the animal.
For detection of a fluorescence signal, measurement, and imaging, Lumino image analyzer LAS5000 (a trial product of Fujifilm Corporation) was used. A visible light image and a fluorescence image were simultaneously taken, and the two images were then overlapped to identify a site from which fluorescence was emitted. […]

R-Gel: recombinant gelatin CBE3, SEQ ID NO: 1, GAP[(GXY)63]3G, 571 amino acids, 12 RGD sequences
adhesion to HUVECs (number of cells by DNA assay) (HUVECs; coated plates 0.02-2.0 μg/well, 1 hour at 37° C.): superior to fibronectin, Fibrogen, PSK, and G1917P | 1-cell area of HUVEC adhering to coated plate (HUVECs; from photos, ImageJ): significantly superior to Fibrogen, PSK, and G1917P | adhesion to HUVECs treated with anti-human αV monoclonal antibody (MAB1980) (αVβ3 integrin): significantly inhibited

cyclic-RGDyK
amount of the circular RGD peptide remaining in the body [1]: ≤ 15%

cyclo-RGDfK
fluorescence intensity in the neovascular site (neovascular site; Cy7-R-Gel 30 min after cyclo-RGDfK (1 mg/ml, 100 μL) pre-administration, 1 hour after the administration): 81431011±1373625 | fluorescence intensity in the neovascular site (neovascular site; Cy7-R-Gel 30 min after cyclo-RGDfK pre-administration, 3 hours after the administration): 60269975±1267782 | fluorescence intensity in the neovascular site (neovascular site; Cy7-R-Gel 30 min after cyclo-RGDfK pre-administration, 24 hours after the administration): 12763810±1927458 | effect of previous administration of cyclo-RGDfK on accumulation of R-Gel in blood vessels (neovascular site; large amount of cyclo-RGDfK administered 30 min before Cy7-R-Gel): inhibits the effect of R-Gel to accumulate in blood vessels | accumulation of R-Gel in the tumoral neovascular site and the tumor site after previous cyclo-RGDfK [2]: decreased

fibronectin
adhesion to HUVECs treated with anti-human αV monoclonal antibody (MAB1980) (αVβ3 integrin): significantly inhibited
